In patent publication US20230017712A1, “SUSTAINED RELEASE DRUG DELIVERY DEVICE” (OAK CREST INSTITUTE OF SCIENCE, priority 2019, published 2023):
Where two headings read alike, the source gives them in different places.

Key:
[1] = 600 mg every 8 weeks, intramuscular; cited from earlier work
HIV [2] = conditions: from non-human primate efficacy studies; cited from earlier work
HIV [3] = conditions: target 50 fmol TFV-DP per million PBMCs; cited from earlier work
[4] = Procedure: The concentration of TAF in the release media was measured by UV-vis absorption spectroscopy (λmax 262 nm).
Remark: listed apart in the source
[5] = kernel 70% TAF / 30% triethyl citrate
Procedure: For both implant types, kernels consisted of 70% TAF and 30% triethyl citrate (w/w). Skins used custom tube extrusions of polyurethane [Pellethane® 2363-55DE (Lubrizol, Inc.); 25 mm length, 2.2 mm I.D., 0.13 mm wall thickness] and silicone [MED-4765 (Nusil, Inc.); 25 mm length, 2.1 mm I.D., 0.13 mm wall thickness]. The implant ends were sealed with MEDS-4213 (Nusil, Inc.) silicone adhesive. In vitro release studies were carried out in 100 mL of release media (0.5% solutol HS 15 in 1×PBS) at 37° C. in an orbital shaking incubator at 125 RPM. Media was changed as required to keep TAF concentration at least 50-fold below saturation to maintain sink conditions.

[6] = paste 50% TAF / 50% PEG 400
Procedure: Implants were fabricated using an ePTFE tubing skin (40 mm length, 2.0 mm I.D., 0.18 mm wall thickness) and a paste kernel composed of 50% TAF and 50% PEG 400 (w/w); the tube ends were sealed. In vitro release studies were carried out in 100 mL of release media (0.1% solutol HS 15 in 1×PBS) at 37° C. in an orbital shaking incubator at 125 RPM. Media was changed as required to keep TAF concentration at least 50-fold below saturation to maintain sink conditions.

[7] = TAF powder, no excipients, PBS, 37° C.
Procedure: Segments (25 mm long) of the ePTFE tubes listed in TABLE 1 were cut, and approximately 3 mm of each end of the tube were prepared for sealing using FluoroEtch primer (Action Technologies, Pittston, Pa.) according to manufactures instructions. The tubes were then filled with tenofovir alafenamide (TAF) powder. No other excipients were used. The mass of TAF per implant varied between 20 and 70 mg depending on the experiment. The filled implants were sealed at both ends by placing a drop of Permabond 105 cyanoacrylate adhesive (Permabond Engineering Adhesives, Pottstown, Pa., USA) inside each end of the tube and crimping the end closed for 30 sec to allow the adhesive to cure and form a tight seal. Implants were kept at room temperature (ca. 23° C.) for 24 hours to allow the adhesive bond to reach full strength. The TAF in vitro release kinetics from the loaded implants was investigated by immersing the device in a solution consisting of phosphate buffered saline (PBS, 1×, 100 mL) containing sodium azide (0.01% w/v) at 37° C. with orbital shaking at 125 RPM for 30 days. The concentration of TAF in the release media was measured by UV-vis absorption spectroscopy (λmax 262 nm).

[8] = monoolein (MYVEROL 18-92K) paste, FIG. 30B
Procedure: In vitro release studies were carried out in 100 mL of release media (0.1% solutol HS 15 in 1×PBS) at 37° C. in an orbital shaking incubator at 125 RPM. Media was changed as required to keep TAF concentration at least 50-fold below saturation to maintain sink conditions.

HIV [9] = conditions: cited from earlier work

SMILES	participants with trough concentrations above 1× PA-IC90 [1] [%]	participants with trough concentrations above 4× PA-IC90 [1] [%]	steady state plasma concentration target, four times the protein adjusted IC90 (PA-IC90) (HIV [2]) [µg/mL]	linear subcutaneous release rate leading to protective TFV-DP PBMC concentrations (HIV [3]) [mg/day]	release behaviour of coated sponges ([4]; PDMS sponges coated with DL-PLA, L-PLA or PCL)	time for drug release from TAF-impregnated sponges ([4]; no polymer coating applied)	TAF delivered linearly over 80 days (blended with PEG 400)	TAF delivered from the implants over the first month (blended with TEC) [mg]	TAF delivered in less than the first day (blended with TEC) [mg]	slope (release rate), simple linear regression (paste TAF 77% w/w with PEG 400 23% w/w, ePTFE 0.84 g cm^−3, 40 mm implant) [µg/day]	release rate, linear fit days 20-160 ([5]; polyurethane skin (Pellethane 2363-55DE)) [mg/day]	release rate, linear fit days 20-160 ([5]; silicone skin (MED-4765)) [mg/day]	TAF release rate ([6]; ePTFE density 0.47 g cm^−3) [mg/day]	TAF release rate ([6]; ePTFE density 0.84 g cm^−3) [mg/day]	daily release rate (slope of linear regression, best fit value±SE) ([7]; ePTFE tube density 0.34 g cm^−3) [mg/day]	daily release rate (slope of linear regression, best fit value±SE) ([7]; ePTFE tube density 0.47 g cm^−3) [mg/day]	daily release rate (slope of linear regression, best fit value±SE) ([7]; ePTFE tube density 0.84 g cm^−3) [mg/day]	daily release rate (slope of linear regression, best fit value±SE) ([7]; ePTFE tube density 1.13 g cm^−3) [mg/day]	effect of monoolein paste on release kinetics through ePTFE tubes relative to other hydrophobic oils [8]	release rate that could be protective (HIV [9])
C[C@H]1CO[C@@H]2Cn3cc(C(=O)NCc4ccc(F)cc4F)c(=O)c(O)c3C(=O)N12 [CAB, Cabotegravir]	≥ 95	≥ 80	0.66	–	–	–	–	–	–	–	–	–	–	–	–	–	–	–	–	–
CC(C)OC(=O)[C@H](C)N[P@](=O)(CO[C@H](C)Cn1cnc2c(N)ncnc21)Oc1ccccc1 [TAF, Tenofovir alafenamide]	–	–	–	0.5	controlled and tuned over 15 d	under 1 d	ca. 5 mg	60	5	54.4	0.079	0.035	0.51	0.065	1.22 ± 0.023	0.40 ± 0.0087	0.58 ± 0.0089	0.12 ± 0.0037	increasing the rate of drug release	ca. 0.3 mg d^−1
